Results taken from ChEMBL document CHEMBL6103618, “Discovery of Novel Oxazolo[4,3-f]purine Derivatives as Antitumor Agents through PPIA Interaction” (J Med Chem, 2025).
The source made the active and inactive calls. No cut-off for these calls is given here.

How the values were obtained:
HCT-116 [1] = experiment: Induction of apoptosis in human HCT-116 cells assessed as increase in Bax level at 1.2 uM in presence of NAC by Western blot analysis; format: functional, cell-based
HeLa = experiment: Antiproliferative activity against human HeLa cells assessed as inhibition of cell viability incubated for 48 hrs by CCK8 assay; format: functional, cell-based
HCT-116 [2] = experiment: Antiproliferative activity against human HCT-116 cells assessed as inhibition of cell viability incubated for 48 hrs by CCK8 assay; format: functional, cell-based; conditions: HCT-116, 48 h
MCF7 = experiment: Antiproliferative activity against human MCF7 cells assessed as inhibition of cell viability incubated for 48 hrs by CCK8 assay; format: functional, cell-based; conditions: MCF7, 48 h
SW480 = experiment: Antiproliferative activity against human SW480 cells assessed as inhibition of cell viability incubated for 48 hrs by CCK8 assay; format: functional, cell-based; conditions: SW480, 48 h
CT26 = experiment: Antiproliferative activity against mouse CT26 cells assessed as inhibition of cell viability incubated for 48 hrs by CCK8 assay; format: functional, cell-based; conditions: CT26, 48 h
HCT-116 [3] = experiment: Inhibition of colony formation in human HCT-116 cells incubated for 48 hrs followed by fresh media replacement without compound on every 72 hrs for 14 days by crystal violet staining based analysis; format: functional, cell-based; conditions: dose 0.3-1.2 µM
HCT-116 [4] = experiment: Induction of cell cycle arrest in human HCT-116 cells assessed as accumulation at G1 phase at 0.6 uM incubated for 48 hrs by PI staining based flow cytometry (reference value: 59.37 %); format: functional
HCT-116 [5] = experiment: Induction of cell cycle arrest in human HCT-116 cells assessed as accumulation at S phase at 0.6 uM incubated for 48 hrs by PI staining based flow cytometry (reference value: 34.55 %); format: functional
HCT-116 [6] = experiment: Induction of cell cycle arrest in human HCT-116 cells assessed as accumulation at G2 phase at 1.2 uM incubated for 48 hrs by PI staining based flow cytometry (reference value: 6.08 %); format: functional
HCT-116 [7] = experiment: Induction of apoptosis in human HCT-116 cells assessed as necrotic cells at 0.3 uM incubated for 48 hrs by Annexin V-FITC/PI staining based flow cytometry (reference value: 1.15 %); format: functional
HCT-116 [8] = experiment: Induction of apoptosis in human HCT-116 cells assessed as early apoptotic cells at 0.6 uM incubated for 48 hrs by Annexin V-FITC/PI staining based flow cytometry (reference value: 1.12 %); format: functional
HCT-116 [9] = experiment: Induction of cell cycle arrest in human HCT-116 cells assessed as decrease in cyclin A2 level incubated for 48 hrs by Western blot analysis; format: functional, cell-based; conditions: dose 0.3-1.2 µM
HCT-116 [10] = experiment: Inhibition of cell viability in human HCT-116 cells at 0.3 to 1.2 uM incubated for 48 hrs; format: functional, cell-based; conditions: dose 0.3-1.2 µM
HCT-116 [11] = experiment: Induction of DNA damage in human HCT-116 cells assessed as increase in orange fluorescence incubated for 48 hrs by AO staining based analysis; format: functional, cell-based; conditions: dose 0.3-1.2 µM
HCT-116 [12] = experiment: Induction of DNA damage in human HCT-116 cells assessed as increase in p53 level at 0.3 to 1.2 uM incubated for 48 hrs by Western blot analysis; format: functional, cell-based; conditions: dose 0.3-1.2 µM
HCT-116 [13] = experiment: Inhibition of colony formation in human HCT-116 cells at 1.2 uM in presence of NAC by crystal violet staining based analysis; format: functional, cell-based
HCT-116 [14] = experiment: Induction of ER stress in human HCT-116 cells at 0.3 to 1.2 uM incubated for 48 hrs by ER-Tracker Red dye based analysis; format: functional, cell-based; conditions: dose 0.3-1.2 µM
HCT-116 [15] = experiment: Induction of ER stress in human HCT-116 cells assessed as increase in ATF4 level at 0.3 to 1.2 uM by Western blot analysis; format: functional, cell-based; conditions: dose 0.3-1.2 µM
HCT-116 [16] = experiment: Induction of mitochondrial dysfunction in human HCT-116 cells at 0.3 to 1.2 uM incubated for 48 hrs by Mito-Tracker Green probe based analysis; format: functional, cell-based; conditions: dose 0.3-1.2 µM
HCT-116 [17] = experiment: Induction of mitochondrial dysfunction in human HCT-116 cells at 1.2 uM in presence of NAC by JC-1 dye based analysis; format: functional, cell-based
[18] = molecular target: Peptidyl-prolyl cis-trans isomerase A (Homo sapiens, UniProt P62937); experiment: Binding affinity to PPIA in human HCT-116 cells assessed as protein stability incubated for 30 mins followed by pronase addition measured after 30 mins by DARTS assay; format: cell-based; conditions: dose <= 6.0 µM, time 60.0 min
Peptidyl-prolyl cis-trans isomerase A, sequence (P62937 whole entry, looked up): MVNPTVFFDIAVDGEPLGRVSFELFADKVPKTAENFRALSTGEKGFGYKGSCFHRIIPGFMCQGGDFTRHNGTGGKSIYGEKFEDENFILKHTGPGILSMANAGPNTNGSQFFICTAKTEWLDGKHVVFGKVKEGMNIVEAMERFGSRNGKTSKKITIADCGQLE

HCT-116 [19] = experiment: Effect on COTL1 expression in human HCT-116 cells upto 6 uM incubated for 30 mins followed by pronase addition measured after 30 mins by DARTS assay; format: functional, cell-based
HCT-116 [20] = experiment: Effect on SET expression in human HCT-116 cells upto 6 uM incubated for 30 mins followed by pronase addition measured after 30 mins by DARTS assay; format: functional, cell-based
HCT-116 [21] = experiment: Effect on SRSF7 expression in human HCT-116 cells upto 6 uM incubated for 30 mins followed by pronase addition measured after 30 mins by DARTS assay; format: functional, cell-based
HCT-116 [22] = experiment: Induction of apoptosis in human HCT-116 cells assessed as decrease in p-ERK1/2 level by Western blot analysis; format: functional, cell-based; conditions: dose 0.3-1.2 µM
HCT-116 [23] = experiment: Inhibition of colony formation in human HCT-116 cells harboring siPPIA-3 at 1.2 uM incubated for 48 hrs followed by fresh media replacement without compound on every 72 hrs for 14 days by crystal violet staining based analysis; format: functional, cell-based
HCT-116 [24] = experiment: Anti-proliferative activity against human HCT-116 cells harboring siNC assessed as decrease in p-ERK1/2 level at 1.2 uM by Western blot analysis; format: functional, cell-based
HCT-116 [25] = experiment: Anti-proliferative activity against human HCT-116 cells harboring siPPIA-3 assessed as decrease in p-ERK1/2 level at 1.2 uM by Western blot analysis; format: functional, cell-based
HCT-116 [26] = experiment: Induction of apoptosis in human HCT-116 cells harboring siNC assessed as early apoptotic cells at 1.2 uM by Annexin V-FITC/PI staining based flow cytometry (reference value: 1.52 %); format: functional
HCT-116 [27] = experiment: Induction of apoptosis in human HCT-116 cells harboring siPPIA-3 assessed as late apoptotic cells at 1.2 uM by Annexin V-FITC/PI staining based flow cytometry (reference value: 3.44 %); format: functional
HCT-116 [28] = experiment: Induction of apoptosis in human HCT-116 cells harboring siPPIA-3 assessed as necrotic cells at 1.2 uM by Annexin V-FITC/PI staining based flow cytometry (reference value: 0.87 %); format: functional
[29] = Acute toxicity in BALB/c mouse assessed as death rate at 350 mg/kg, ip measured for 14 days; format: organism-based; conditions: both, in vivo, time 14 day, read-out: Activity
[30] = Acute toxicity in BALB/c mouse assessed as death rate at 500 mg/kg, ip measured for 14 days; format: organism-based; conditions: both, in vivo, time 14 day, read-out: Activity
[31] = Toxicity in BALB/c mouse implanted with mouse CT26 cells assessed as injury in lung at 15 to 45 mg/kg, ip qd treated for 14 days by H and E staining based analysis; format: organism-based; conditions: in vivo, 336 h, dose 15-45 mg/kg, time 14 day
[32] = Toxicity in BALB/c mouse implanted with mouse CT26 cells assessed as abnormality in spleen at 15 to 45 mg/kg, ip qd treated for 14 days by H and E staining based analysis; format: organism-based; conditions: in vivo, 336 h, dose 15-45 mg/kg, time 14 day
[33] = Toxicity in BALB/c mouse implanted with mouse CT26 cells assessed as abnormality in kidney at 15 to 45 mg/kg, ip qd treated for 14 days by H and E staining based analysis; format: organism-based; conditions: in vivo, 336 h, dose 15-45 mg/kg, time 14 day

Q: What does the source list for `C=C(C(=O)OC)N1c2nc(Cl)nc(Cl)c2N2C(c3ccccc3F)OC(C(=O)OCC)(C(=O)OCC)C12` (racemic)?
A: Activity (HCT-116 [1]): inactive; IC50 (HeLa): 690 nM; IC50 (HCT-116 [2]): 510 nM; IC50 (MCF7): 1190 nM; IC50 (SW480): 2590 nM; IC50 (CT26): 860 nM; inhibition (HCT-116 [3]): Dose-dependent-effect; Activity (HCT-116 [4]): 66.32%; Activity (HCT-116 [5]): 28.97%; Activity (HCT-116 [6]): 2.78%; Activity (HCT-116 [7]): 1.8%; Activity (HCT-116 [8]): 14.8%; Activity (HCT-116 [9]): Dose-dependent-effect; inhibition (HCT-116 [10]): Active; Activity (HCT-116 [11]): Dose-dependent-effect; Activity (HCT-116 [12]): Active; inhibition (HCT-116 [13]): inactive; Activity (HCT-116 [14]): Active; Activity (HCT-116 [15]): Active; Activity (HCT-116 [16]): Active; Activity (HCT-116 [17]): inactive; Activity [18]: Dose-dependent-effect; Activity (HCT-116 [19]): No effect; Activity (HCT-116 [20]): No effect; Activity (HCT-116 [21]): No effect; Activity (HCT-116 [22]): Dose-dependent-effect; inhibition (HCT-116 [23]): inactive; Activity (HCT-116 [24]): Active; Activity (HCT-116 [25]): inactive; Activity (HCT-116 [26]): 16.8%; Activity (HCT-116 [27]): 3.25%; Activity (HCT-116 [28]): 1.09%; mortality at 336 h [29]: 20%; mortality at 336 h [30]: 60%; Activity [31]: Non-toxic; Activity [32]: Non-toxic; Activity [33]: Non-toxic
